Assay results reported in patent publication US5541290A, “Optically pure calpain inhibitor compounds” (priority 1993, dated 1996).
Counter-ions that a name gives are not always drawn.

Target: T1, Calpain I (porcine erythrocytes) (Sus scrofa, UniProt P35750)
T1 construct: Calpain I (porcine erythrocytes, Nacalai Tesque, Kyoto, Japan); purchased Nacalai Tesque, Kyoto, Japan; host or cells: porcine erythrocytes (natural tissue source)
T1 sequence (P35750 1-714): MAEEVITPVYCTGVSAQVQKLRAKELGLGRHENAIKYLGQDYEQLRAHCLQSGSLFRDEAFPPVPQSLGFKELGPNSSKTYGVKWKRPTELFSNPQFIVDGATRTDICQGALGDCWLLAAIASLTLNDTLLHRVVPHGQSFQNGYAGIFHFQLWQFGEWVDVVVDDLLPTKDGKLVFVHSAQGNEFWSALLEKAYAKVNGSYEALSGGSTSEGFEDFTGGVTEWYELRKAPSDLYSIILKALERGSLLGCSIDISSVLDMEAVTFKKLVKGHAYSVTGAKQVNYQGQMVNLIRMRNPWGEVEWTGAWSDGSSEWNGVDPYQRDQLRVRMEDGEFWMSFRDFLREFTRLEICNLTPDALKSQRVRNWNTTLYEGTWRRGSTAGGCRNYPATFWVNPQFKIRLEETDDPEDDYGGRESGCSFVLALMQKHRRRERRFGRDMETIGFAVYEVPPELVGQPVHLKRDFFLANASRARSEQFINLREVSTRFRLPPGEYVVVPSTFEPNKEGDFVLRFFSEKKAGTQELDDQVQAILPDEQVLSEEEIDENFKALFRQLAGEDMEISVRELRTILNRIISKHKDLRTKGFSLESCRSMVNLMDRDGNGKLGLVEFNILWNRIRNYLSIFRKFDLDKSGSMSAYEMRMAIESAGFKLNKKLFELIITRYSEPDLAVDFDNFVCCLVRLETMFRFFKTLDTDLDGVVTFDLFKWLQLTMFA
T1 sequence (P04574 1-266 partner): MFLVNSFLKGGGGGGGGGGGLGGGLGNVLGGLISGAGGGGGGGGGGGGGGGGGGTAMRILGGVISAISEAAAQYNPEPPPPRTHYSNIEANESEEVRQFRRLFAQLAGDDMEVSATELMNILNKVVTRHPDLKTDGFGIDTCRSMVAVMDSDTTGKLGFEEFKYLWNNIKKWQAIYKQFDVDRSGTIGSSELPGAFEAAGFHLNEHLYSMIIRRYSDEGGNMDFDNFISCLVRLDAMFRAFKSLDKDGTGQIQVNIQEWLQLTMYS
Experiment: Calpain assay, continuous spectrofluorometric assay with SLY-MCA
Format: biochemical
Settings: SLY-MCA substrate, 25° C., pH 7.5, competitive inhibition fit, read-out: Ki, pCal I
Method: Calpain activity was monitored using a continuous spectrofluorometric assay with succinyl-Leucyl-Tyrosyl-4-methylcoumaryl-γ-amide (SLY-MCA); Sasaki, T.; Kikuchi, T.; Yumotogo, N.; Yoshimura, N. and Murachi, T. J. Biol. Chem. 1984, 259. 12489-12494) at 25° C. using a Hitachi F4500 fluorescence spectrophotometer with a temperature controlled cuvette holder. The substrate solution was composed of SLY-MCA (2-0.2 mM) in 50 mM MOPS, pH 7.5, 5 mM CaCl2, 5 mM β-mercaptoethanol and 1% DMSO. Solutions of the inhibitors (100-500 nM) were prepared in the same buffer mixture as substrate. Calpain I (porcine erythrocytes, Nacalai Tesque, Kyoto, Japan) was diluted to 180 ug/mL in 20 mM HEPES, pH 7.5, 2 mM EDTA, 2 mM EGTA and 5 mM DTT. The substrate solution (0.9 mL) was placed in a 1 cm cuvette and to this was added either the inhibitor solution (0.05 mL) or the buffer (0.05 mL) as a control. The reaction was initiated by addition of the calpain I solution (0.05 mL) and the increase in fluorescence (excitation at 380 nm; emission at 460 nm) was monitored for 3 to 10 min. The initial velocities were then used to obtain the values of Vmax, Km and Ki by an iterative least squares fit of the data to the following equation for competitive inhibition according to the method of W. W. Cleland, Biochim. Biophys. Acta 67: 173 (1963).
V={Vmax ·[SLY-MCA]}/{(1+Inh]/Kl)·Km+[SLY-MCA]}

Compound	Ki [nM]
CCC(NC(=O)C(CC(C)C)NC(=O)OCc1ccccc1)C(=O)C(=O)NCCS(=O)(=O)CC [Cbz-L-Leu-L-Abu-C(O)-NH-(CH2)2 -SO2 -ET, Cbz-L-Leu-L-Abu-C(O)--NH--(CH2)2 --SO2 --Et]	129 ± 15
CCCC(NC(=O)C(CC(C)C)NC(=O)C(N)Cc1ccccc1)C(=O)C(=O)NCC [D-Phe-L-Leu-L-Norvaline-CONH-Et.HCl, D-Phe-L-Leu-L-Norvaline-CONH-Et·HCl]	244 ± 11
COC(=O)[C@H](Cc1ccc(OC(C)(C)C)cc1)NC(=O)C(=O)C(Cc1ccccc1)NC(=O)[C@H](CC(C)C)NC(=O)OCc1ccccc1 (stereo partly drawn) [Cbz-L-Leu-L-Phe-C(O)-Tyr(O-t-butyl)-OMe]	273 ± 17
Boc-D-Phe-L-Leu-L-Norvaline-CONH-Et	93 ± 4
CCNC(=O)C(=O)C(CC)NC(=O)C(CC(C)C)NC(=O)N1CCOCC1 [Morpholinourea-L-Leu-L-Abu-CONH-Et]	199 ± 16
CCC(NC(=O)C(=O)C(Cc1ccccc1)NC(=O)C(CC(C)C)NC(=O)OCc1ccccc1)C(=O)OC [Cbz-L-Leu-L-Phe-C(O)-L-α-Abu-OMe]	141 ± 22
COC(=O)C(C)NC(=O)C(=O)C(Cc1ccccc1)NC(=O)C(CC(C)C)NC(=O)OCc1ccccc1 [Cbz-L-Leu-L-Phe-C(O)-L-Ala-OMe]	92 ± 6
CCNC(=O)C(=O)C(CC)NC(=O)C(CC(C)C)NC(=O)N(C)C [Dimethylurea-L-Leu-L-Abu-CONH-Et]	332 ± 29
CC(C)C[C@H](NC(=O)OCc1ccccc1)C(=O)N[C@@H](Cc1ccccc1)C(=O)C(=O)N[C@@H](C)C(=O)O [Cbz-L-Leu-L-Phe-C(O)-L-Ala-OH]	718 ± 84
Cbz-L-Leu-L-Phenylalanine-CONH-Et	89
CCCC(NC(=O)C(CC(C)C)NC(=O)C(N)Cc1ccccc1)C(=O)C(=O)NCC [L-Phe-L-Leu-L-Norvaline-CONH-Et.HCl, L-Phe-L-Leu-L-Norvaline-CONH-Et·HCl]	116 ± 5
CCNC(=O)C(=O)C(CC)NC(=O)C(CC(C)C)NC(=O)OC(C)(C)C [Boc-L-Leu-L-Abu-CONH-Et]	170 ± 15

The next lines start with the values.

Ki [nM]	Compound
78	Cbz-L-Leu-L-Norvaline-CONH-Et
77 ± 10	Cbz-L-Leu-L-Abu-CONH-Et
76.6 ± 5.2	Cbz-L-Leu-L-Phe-C(O)-L-Norleucine-OMe
61 ± 2	Boc-L-Phe-L-Leu-L-Norvaline-CONH-Et
31 ± 12	Cbz-L-Leu-L-Phe-C(O)-Phe-OMe

Target: T1, Calpain I (porcine erythrocytes)
Experiment: as above
Format: biochemical
Settings: not given

IC50 [nM]	Compound
> 1500	CCNC(=O)C(=O)C(Cc1ccccc1)NC(=O)C(CC(C)C)NC(=O)OCc1ccccc1 [Cbz-L-Leu-D-Phe-CONH-Et]
